Peptide text beside a SMILES is read from it. * marks the point of attachment. Cbz = O=C(OCc1ccccc1)*

Assay [1] deals with T1, Tyrosinase (Homo sapiens) (UniProt P14679).
T1 sequence (whole entry): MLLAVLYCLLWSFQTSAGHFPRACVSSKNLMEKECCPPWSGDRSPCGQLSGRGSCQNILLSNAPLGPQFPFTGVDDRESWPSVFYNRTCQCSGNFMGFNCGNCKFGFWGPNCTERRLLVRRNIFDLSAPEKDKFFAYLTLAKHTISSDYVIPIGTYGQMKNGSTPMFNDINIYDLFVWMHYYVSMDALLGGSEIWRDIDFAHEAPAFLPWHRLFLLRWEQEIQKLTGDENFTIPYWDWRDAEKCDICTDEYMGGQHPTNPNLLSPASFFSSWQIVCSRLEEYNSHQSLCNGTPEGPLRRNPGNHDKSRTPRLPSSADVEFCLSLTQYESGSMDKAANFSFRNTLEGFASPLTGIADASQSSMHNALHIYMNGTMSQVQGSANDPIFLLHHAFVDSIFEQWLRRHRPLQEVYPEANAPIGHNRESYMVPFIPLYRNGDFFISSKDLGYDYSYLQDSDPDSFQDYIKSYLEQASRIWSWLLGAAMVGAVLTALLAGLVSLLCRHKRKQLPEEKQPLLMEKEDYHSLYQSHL
The following applies: at 10 µM.
Description: Inhibition of tyrosinase (unknown origin) using L-tyrosine as substrate at 10 uM preincubated for 15 mins followed by substrate addition relative to control

Assay [2] concerns RAW264.7. The experiment in a line: Antiinflammatory activity against mouse RAW264.7 cells assessed as inhibition of LPS-induced nitric oxide production at 10 uM after 24 hrs by Griess assay relative to control. It is filed as functional. The following applies: RAW264.7, 24 h.
Assay [3] concerns the target T2, Tyrosine-protein phosphatase non-receptor type 1 (Homo sapiens) (UniProt P18031).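 Also: recombinant enzyme assay with pNPP substrate, inhibition read after 30 min versus untreated control.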
T2 sequence (whole entry): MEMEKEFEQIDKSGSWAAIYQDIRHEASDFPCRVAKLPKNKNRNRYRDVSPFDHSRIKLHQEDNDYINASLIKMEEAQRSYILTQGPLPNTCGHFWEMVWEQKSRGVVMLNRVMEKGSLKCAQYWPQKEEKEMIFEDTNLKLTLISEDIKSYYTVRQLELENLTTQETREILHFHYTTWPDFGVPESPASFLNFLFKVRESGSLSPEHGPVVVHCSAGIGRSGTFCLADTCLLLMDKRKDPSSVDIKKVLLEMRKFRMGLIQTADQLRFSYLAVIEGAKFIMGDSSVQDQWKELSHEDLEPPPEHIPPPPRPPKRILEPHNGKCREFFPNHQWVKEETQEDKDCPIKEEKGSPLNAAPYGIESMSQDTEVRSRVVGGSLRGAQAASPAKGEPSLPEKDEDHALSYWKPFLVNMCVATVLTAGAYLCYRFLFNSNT
The settings on record: at 10 µM.
Description: Inhibition of recombinant human PTP1B using pNPP as substrate at 10 uM after 30 mins relative to control

Assay [4] concerns Homo sapiens. Put plainly: Inhibition of LPS-induced NF-kappaB (unknown origin) transactivation expressed in human SW480 cells at 10 uM administered 1 hr after LPS stimulation measured after 6 hrs by luciferase reporter gene assay relative to control. It is filed as cell-based.
Assay [5] relates to MCF7. Put plainly: Antiproliferative activity against human MCF7 cells at 10 uM after 24 hrs by MTS assay relative to control. It is filed as functional. The settings on record: MCF7, 24 h.
Assay [6] concerns HepG2. Put plainly: Antiproliferative activity against human HepG2 cells at 10 uM after 24 hrs by MTS assay relative to control. In kind it is functional. The settings on record: HepG2, 24 h.
The test system of assay [7] is A549. The experiment in a line: Antiproliferative activity against human A549 cells at 10 uM after 24 hrs by MTS assay relative to control. In kind it is functional. The settings on record: A549, 24 h.
Assay [8] concerns SW480. The experiment in a line: Antiproliferative activity against human SW480 cells at 10 uM after 24 hrs by MTS assay relative to control. In kind it is functional. The settings on record: SW480, 24 h.

Take `COc1ccc([C@@H]2COc3c(ccc(O)c3CC=C(C)C)C2)c(O)c1O`: the inhibition was determined as 20.1% in assay [1], 80% in assay [3] and 8.4% in assay [4]. The inhibition at 10 µM in assay [2] stood at 33%; in assay [5] it was 30.4%; in assay [6], 38%; in assay [7], 15.5%; in assay [8] it was 0.2%.
Turning to `CC(C)=CCc1c(O)cc(O)c2c(=O)c(-c3ccc(O)cc3O)coc12`, the figures for the inhibition in assay [1], in assay [3] and in assay [4] were 49.6%, 18.2% and 0%, respectively. Besides, the inhibition at 10 µM is 10.3% in assay [2]; 7.4% in assay [5]; 0% in assay [6]; 4.2% in assay [7]; 4.2% in assay [8].
Turning to `CC1(C)C=Cc2c(cc(O)c3c(=O)c(-c4ccc(O)cc4O)coc23)O1`, the results for the inhibition in assay [1], in assay [3] and in assay [4] were 28.7%, 57.6% and 0%, respectively. Further, the inhibition at 10 µM in assay [2] was found to be 5.6%; in assay [5] it was 12.7%; in assay [6] it was 12.7%; in assay [7], 4.3%; in assay [8], 29.6%.
On to `COc1ccc2c(c1)O[C@H]1c3ccc(O)c(CC=C(C)C)c3OC[C@@H]21` [LICOAGROCARPIN], for which the inhibition in assay [1] came out at 0%; in assay [3], 4.9%; in assay [4], 0%. Besides, the inhibition at 10 µM in assay [2] came to 16.7%; in assay [5], 52.9%; in assay [6] it was 8.3%; in assay [7], 37.3%; in assay [8] it was 18.2%.
On to `CC(C)=CCc1c(O)ccc(C(=O)/C=C/c2ccc(O)cc2)c1O` [ISOBAVACHALCONE], for which the inhibition in assay [1] amounted to 18.4%; in assay [3], 16%; in assay [4], 13.2%. Moreover, the inhibition at 10 µM in assay [2] was found to be 7.5%; in assay [5], 15.6%; in assay [6] it was 27.3%; in assay [7], 3.5%; in assay [8], 46.7%.
Consider `CC(C)=CCc1c(O)ccc2c1OC[C@@H](c1ccc3c(c1O)C=CC(C)(C)O3)C2`, for which the inhibition in assay [1] stood at 12.9%; in assay [3], 5.5%; in assay [4] it was 40.2%. Besides, the inhibition at 10 µM was found to be 3.6% in assay [2]; 60.9% in assay [5]; 15.9% in assay [6]; 10.2% in assay [7]; 20.2% in assay [8].
Take `CC(C)=CCc1c(O)ccc([C@@H]2COc3c(ccc(O)c3CC=C(C)C)C2)c1O` [KANZONOL X]: the inhibition amounted to 7.9% in assay [1], 15.7% in assay [3] and 32.9% in assay [4]. Also, the inhibition at 10 µM amounted to 15.7% in assay [2]; 95.9% in assay [5]; 14.9% in assay [6]; 81.6% in assay [7]; 74.4% in assay [8].
Regarding `CCc1c2c(nc3ccc(OC(=O)N4CCC(N5CCCCC5)CC4)cc13)-c1cc3c(c(=O)n1C2)COC(=O)[C@]3(O)CC` [IRINOTECAN], the inhibition at 10 µM in assay [5] was 93.6%; in assay [6], 98.9%; in assay [7], 91.8%; in assay [8], 95%.
As for `CC1(C)C=Cc2c(ccc3c(=O)c(Oc4ccc(O)cc4O)coc23)O1`, the inhibition in assay [1] was 2.4%; in assay [3] it was 12.8%; in assay [4] it was 18.1%. Further, the inhibition at 10 µM was determined as 6.3% in assay [2]; 2.6% in assay [5]; 29.9% in assay [6]; 0% in assay [7]; 7.1% in assay [8].
Consider `CC(C)=CCc1c(O)cc(O)c2c(=O)c(-c3ccc(O)cc3)coc12`, for which the inhibition in assay [1] was determined as 1.6%; in assay [3] it was 10.6%; in assay [4], 7.1%. The inhibition at 10 µM in assay [2] amounted to 1.5%; in assay [5], 19.7%; in assay [6], 32.4%; in assay [7], 0%; in assay [8], 21.2%.
Regarding `O=C1C[C@@H](c2ccc(O)cc2)Oc2cc(O)ccc21` [LIQUIRTIGENIN], the inhibition in assay [1] stood at 4.6%; in assay [3], 9.8%; in assay [4], 0%. Also, the inhibition at 10 µM in assay [2] is 2.8%; in assay [5] it was 7.7%; in assay [6] it was 7%; in assay [7], 0%; in assay [8], 7.5%.
`CC1(C)C=Cc2c(ccc(-c3coc4cc(O)ccc4c3=O)c2O)O1` [GLABRONE]: the inhibition came to 9.7% in assay [1], 0.3% in assay [3] and 6.4% in assay [4]. In addition, the inhibition at 10 µM in assay [2] stood at 42%; in assay [5], 36.1%; in assay [6] it was 29.2%; in assay [7] it was 0%; in assay [8] it was 45.4%.
Regarding `CC1(C)C=Cc2c(ccc3c2O[C@H]2c4ccc(O)cc4OC[C@@H]32)O1` [PHASEOLIN], the inhibition was 2.4% in assay [1], 9.5% in assay [3] and 2.1% in assay [4]. The inhibition at 10 µM in assay [2] is 2.6%; in assay [5], 6.8%; in assay [6], 0%; in assay [7] it was 34.7%; in assay [8] it was 0%.
As for `CC1(C)C=Cc2cc3c(cc2O1)OCC(c1ccc(O)c2c1OC(C)(C)C=C2)=C3`, the values for the inhibition in assay [1], in assay [3] and in assay [4] were 1.3%, 95.3% and 0%, respectively. Also, the inhibition at 10 µM in assay [2] was determined as 2.6%; in assay [5], 26.6%; in assay [6], 0%; in assay [7], 0.7%; in assay [8] it was 24.3%.
For `CC1(C)C=Cc2c(ccc3c(=O)c(-c4ccc(O)cc4O)coc23)O1`, the inhibition was 1% in assay [1], 6% in assay [3] and 1.5% in assay [4]. The inhibition at 10 µM was 12.1% in assay [2]; 42.1% in assay [5]; 30% in assay [6]; 4.9% in assay [7]; 0% in assay [8].
For the compound `CC1(C)C=Cc2c(cc(O)c3c(=O)c(-c4ccc(O)cc4)coc23)O1` [DERRONE], the figures for the inhibition in assay [1], in assay [3] and in assay [4] were 11%, 21% and 30.8%, respectively. Moreover, the inhibition at 10 µM was found to be 0% in assay [2]; 13.6% in assay [5]; 23.7% in assay [6]; 0% in assay [7]; 0% in assay [8].
Turning to `COc1cc(/C=C/C(=O)CC(=O)/C=C/c2ccc(O)c(OC)c2)ccc1O` [CURCUMIN], in assay [2], the inhibition at 10 µM is 70%.
As to `CC(C)=CCc1cc(C[C@@H](O)C(=O)c2ccc(O)cc2O)ccc1O`, the inhibition in assay [1] came to 10.3%; in assay [3] it was 0.2%; in assay [4], 23%. Also, the inhibition at 10 µM turned out to be 7.1% in assay [2]; 29.5% in assay [5]; 7.2% in assay [6]; 6.1% in assay [7]; 4.2% in assay [8].
`CC(C)C[C@@H](C=O)NC(=O)[C@H](CC(C)C)NC(=O)[C@H](CC(C)C)NC(=O)OCc1ccccc1` (Cbz-Leu-Leu-Leu-aldehyde) registered an inhibition in assay [4] of 79.2%.
Turning to `C[C@H]1[C@H](C)CC[C@]2(C(=O)O)CC[C@]3(C)C(=CC[C@@H]4[C@@]5(C)CC[C@H](O)C(C)(C)[C@@H]5CC[C@]43C)[C@H]12`, the inhibition in assay [3] was 82.1%.
Regarding `COc1c(CC=C(C)C)c(O)cc2c1C[C@H](c1ccc(O)cc1O)CO2`, in assay [1], the inhibition was 91.1%.

These data come from ChEMBL document CHEMBL4052601, “Glycybridins A-K, Bioactive Phenolic Compounds from Glycyrrhiza glabra” (J Nat Prod, 2017).
